How the values were obtained:
[1] = test system: crude membrane proteins from each patient's PBMC; experiment: Dynamic NIR spectroscopy of crude PBMC membrane proteins of IBD patients in absence and presence of infliximab; parameters: species or system human; conditions: infliximab 10e-6M, samples of patients responding to infliximab, 850-1450 nm, FIG. 17
Description: All the patients have a treatment: infliximab (Remicad®). infliximab is an anti-TNFalpha. 50 patients (women=16, men=34) with an average age of 43±8 year seeking medical assistance at Erlangen hospital day-care unit are taking part to the study. Patient's whole blood is collected using sodium citrate vacutainer tubes (5-10 ml/patient). Samples are blinded.
Peripheral blood mononuclear cells (PBMCs) are separated and isolated on ficoll gradient from blood samples, and then frozen. Crude PBMC membranes are prepared in physiological conditions without addition of any protease inhibitor or anti-phosphatase or lyses buffer. PBMC samples were subjected to three fast deep freezing (liquid nitrogen, slow thaw at 4° C., cycle. Determination of protein concentration: total protein concentration was determined using BCA assay (BCA Protein Assay Reagent, bicinchoninic acid). […]
One variable is analyzed in presence and in absence of infliximab: Compare Individual Macromolecular Volume (INV), that is defined as the total macromolecular spectral change from −37° C. to 37° C., due to the macromolecular conformational changes in absence and presence of a drug, expressed as change in absorbance as a function of wavelength and temperature. […]
Results are analyzed based on their spectral fingerprints going from −37° C. to 37° C. and compared to identify responders and non-responders patients.

[2] = test system: rat hypothalamus extracts; experiment: Dynamic NIR spectroscopy of rat hypothalamus extracts in presence of bithionol; conditions: FIG. 11
Excerpt: Sample buffer constituted the blank.

Compound	Individual Macromolecular Volume (INV), total macromolecular spectral change from −37° C. to 37° C. [1]	effect on protein assemblies / protein conformation (water molecules spectra in NIR wavelength) ([2]; 1 μM test molecule, extract 10^−6 mg/ml, −37° C. to 37° C.)	reversibility of induced conformation changes ([2]; 1 μM, visible in low temperature (most at −37° C.))
infliximab	increases unanimously	–	–
Oc1c(Cl)cc(Cl)cc1Sc1cc(Cl)cc(Cl)c1O [bithionol]	–	disturbs the protein assemblies	reversible as the temperature rises

— US9709486B2, “Method of dynamic spectroscopy under physiological conditions” (INOVIEM SCIENTIFIC, priority 2012, dated 2017)
